Experimental data: patent US20240252488A1 (KOREA RESEARCH INSTITUTE OF CHEMICAL TECHNOLOGY, priority 2020, published 2024)

Columns and labels:
FADD−/− Jurkat cells = test: Necroptosis inhibition assay, TNF-α-induced necroptosis (CellTiter-Glo 2.0); format: cell-based, human; conditions: TNF-α 15 ng/mL, FADD−/− Jurkat cells; for Necroptosis inhibition assay (Rescue %) 1 μM: compound 1 μM; for Necroptosis inhibition assay (Rescue %) 10 μM: compound 10 μM
In short: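 Cmpd 0.1/1/10 μM final, 30 min RT preincubation; TNF-α 15 ng/mL final; 20–24 h, 37° C, 5% CO2. Readout: ATP luminescence (reagent 1:3 in PBS), 0.5 s/well. Cytotoxicity and % necroptosis inhibition calculated from signal.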

MLKL [1] = target: T1, MLKL (Homo sapiens, UniProt Q8NB16); test: MLKL degradation assay in HepG2 cell line (western blot); format: cell-based; parameters: endogenous in cells; host or cells: HepG2 or HaCaT; conditions: cell line not given; for Degradation assay (Degradation %) 1 μM: compound 1 μM; for Degradation assay (Degradation %) 10 μM: compound 10 μM
T1 sequence (Q8NB16 1-471): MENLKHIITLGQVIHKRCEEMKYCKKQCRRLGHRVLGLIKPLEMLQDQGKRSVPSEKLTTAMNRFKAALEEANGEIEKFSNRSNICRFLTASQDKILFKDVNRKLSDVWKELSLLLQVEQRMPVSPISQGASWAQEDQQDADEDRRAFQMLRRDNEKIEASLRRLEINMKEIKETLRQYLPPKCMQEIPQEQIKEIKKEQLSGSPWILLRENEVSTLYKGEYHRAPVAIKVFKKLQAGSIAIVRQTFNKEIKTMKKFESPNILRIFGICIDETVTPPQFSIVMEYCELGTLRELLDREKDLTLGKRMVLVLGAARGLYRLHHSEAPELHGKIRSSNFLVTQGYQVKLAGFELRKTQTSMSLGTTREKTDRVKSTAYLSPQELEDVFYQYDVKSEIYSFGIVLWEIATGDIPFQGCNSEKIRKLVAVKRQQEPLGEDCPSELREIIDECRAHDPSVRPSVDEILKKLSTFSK
In short: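 HepG2, cpd final 1 or 10 μM, 20-24 h, 37 °C/5% CO2; RIPA lysis, BCA-normalized, 10-15 μg/lane SDS-PAGE, western blot, ECL read-out.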

MLKL [2] = target: T1, MLKL; test: Measurement of binding affinity with MLKL receptor (competitive binding assay, Kd); parameters: made in house; host or cells: HEK 293 cell line (T7 phage in E. coli BL21-derived host is also described)
In short: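 MLKL was produced in HEK 293 cells and tagged with DNA for detection. Liganded beads were blocked with excess biotin and washed to cut non-specific binding, then compounds (111× DMSO stocks, 0.9% DMSO in assay) competed for binding. Eluate kinase was measured by qPCR for Kd.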

Compound	Degradation assay (Degradation %) 1 μM (MLKL [1]) [%]	Degradation assay (Degradation %) 10 μM (MLKL [1]) [%]	Kd (MLKL [2]) [nM]	Necroptosis inhibition assay (Rescue %) 1 μM (FADD−/− Jurkat cells) [%]	Necroptosis inhibition assay (Rescue %) 10 μM (FADD−/− Jurkat cells) [%]
Nc1ncc(-c2cnn(C3CCN(CCOC4CCN(C(=O)c5ccc6c(c5)CN(C5CCC(=O)NC5=O)C6=O)CC4)CC3)c2)nc1C(=O)O[C@@H](C(=O)Nc1ccc(F)cc1)c1ccccc1 (stereo partly drawn) [TDH-549, (R)-2-((4-fluorophenyl)amino)-2-oxo-1-phenylethyl 3-amino-6-(1-(1-(2-((1-(2-(2,6-dioxopiperidin-3-yl)-1-oxoisoindoline-5-carbonyl)piperidin-4-yl)oxy)ethyl)piperidin-4-yl)-1H-pyrazol-4-yl)pyrazine-2-carboxylate]	84.54	34.92	0.64	35.84	25.21
Nc1ncc(-c2cnn(C3CCN(CC4CCN(CC5CCN(C(=O)c6ccc7c(c6)CN(C6CCC(=O)NC6=O)C7=O)CC5)CC4)CC3)c2)nc1C(=O)O[C@@H](C(=O)Nc1ccc(F)cc1)c1ccccc1 (stereo partly drawn) [TDH-550, (R)-2-((4-fluorophenyl)amino)-2-oxo-1-phenylethyl 3-amino-6-(1-(1-((1-((1-(2-(2,6-dioxopiperidin-3-yl)-1-oxoisoindoline-5-carbonyl)piperidin-4-yl)methyl)piperidin-4-yl)methyl)piperidin-4-yl)-1H-pyrazol-4-yl)pyrazine-2-carboxylate]	88.92	86.09	0.53	47.98	20.62
Nc1ncc(-c2cnn(C3CCN(CCC4CCN(C(=O)c5ccc6c(N7CCC(=O)NC7=O)coc6c5)CC4)CC3)c2)nc1C(=O)O[C@@H](C(=O)Nc1ccc(F)cc1)c1ccccc1 [TDH-552, (R)-2-((4-fluorophenyl)amino)-2-oxo-1-phenylethyl 3-amino-6-(1-(1-(2-(1-(3-(2,4-dioxotetrahydropyrimidin-1(2H)-yl)benzofuran-6-carbonyl)piperidin-4-yl)ethyl)piperidin-4-yl)-1H-pyrazol-4-yl)pyrazine-2-carboxylate]	92.21	75.10	0.41	31.97	6.25
Nc1ncc(-c2cnn(C3CCN(CCOC4CCN(C(=O)c5ccc6c(N7CCC(=O)NC7=O)coc6c5)CC4)CC3)c2)nc1C(=O)O[C@@H](C(=O)Nc1ccc(F)cc1)c1ccccc1 [TDH-554, (R)-2-((4-fluorophenyl)amino)-2-oxo-1-phenylethyl 3-amino-6-(1-(1-(2-((1-(3-(2,4-dioxotetrahydropyrimidin-1(2H)-yl)benzofuran-6-carbonyl)piperidin-4-yl)oxy)ethyl)piperidin-4-yl)-1H-pyrazol-4-yl)pyrazine-2-carboxylate]	83.95	70.50	0.43	39.53	14.16

The next compounds have a lower Kd (MLKL [2]) than those just listed; values first:

Degradation assay (Degradation %) 1 μM (MLKL [1]) [%]	Degradation assay (Degradation %) 10 μM (MLKL [1]) [%]	Kd (MLKL [2]) [nM]	Compound	Necroptosis inhibition assay (Rescue %) 1 μM (FADD−/− Jurkat cells) [%]	Necroptosis inhibition assay (Rescue %) 10 μM (FADD−/− Jurkat cells) [%]
84.21	91.57	0.31	Nc1ncc(-c2cnn(C3CCN(C4CC5(CCN(CC6CCN(C(=O)c7ccc8c(N9CCC(=O)NC9=O)coc8c7)CC6)CC5)C4)CC3)c2)nc1C(=O)O[C@@H](C(=O)Nc1ccc(F)cc1)c1ccccc1 [TDH-553, (R)-2-((4-fluorophenyl)amino)-2-oxo-1-phenylethyl 3-amino-6-(1-(1-(7-((1-(3-(2,4-dioxotetrahydropyrimidin-1(2H)-yl)benzofuran-6-carbonyl)piperidin-4-yl)methyl)-7-azaspiro[3.5]nonan-2-yl)piperidin-4-yl)-1H-pyrazol-4-yl)pyrazine-2-carboxylate]	58.63	−20.56
88.03	83.80	0.3	Nc1ncc(-c2cnn(C3CCN(CCCN4CCN(C(=O)c5ccc6c(N7CCC(=O)NC7=O)coc6c5)CC4)CC3)c2)nc1C(=O)O[C@@H](C(=O)Nc1ccc(F)cc1)c1ccccc1 [TDH-551, (R)-2-((4-fluorophenyl)amino)-2-oxo-1-phenylethyl 3-amino-6-(1-(1-(3-(4-(3-(2,4-dioxotetrahydropyrimidin-1(2H)-yl)benzofuran-6-carbonyl)piperazin-1-yl)propyl)piperidin-4-yl)-1H-pyrazol-4-yl)pyrazine-2-carboxylate]	40.61	10.85
78.56	–	0.22	Nc1ncc(-c2cnn(C3CCN(CC4CCN(CC5CCN(C(=O)c6ccc7c(N8CCC(=O)NC8=O)coc7c6)CC5)CC4)CC3)c2)nc1C(=O)O[C@@H](C(=O)Nc1ccc(F)cc1)c1ccccc1 [TDH-555, (R)-2-((4-fluorophenyl)amino)-2-oxo-1-phenylethyl 3-amino-6-(1-(1-((1-((1-(3-(2,4-dioxotetrahydropyrimidin-1(2H)-yl)benzofuran-6-carbonyl)piperidin-4-yl)methyl)piperidin-4-yl)methyl)piperidin-4-yl)-1H-pyrazol-4-yl)pyrazine-2-carboxylate]	47.10	−51.39
